Patent US10046001B2, “Compositions and methods for reducing intraocular pressure” (UNIVERSITY OF MIAMI, priority 2013, dated 2018)

What was measured:
DBA/2J mice = experiment: IOP lowering after topical application in DBA/2J mice; type: in vivo, mouse; conditions: DBA/2J mouse at 8 months, IOP ~35 mm of Hg, topical once daily up to 7 days
Procedure: The right eye was treated with vehicle alone and left eye treated with lipid. Control had both eyes treated with vehicle. A. In DBA/2J mice the indicated lipid in vehicle or control (vehicle only) were administered one daily at around 7.5 months of age in mice which were noted to have a IOP≥18 mm of Hg (20% increase from an average baseline of 15 mm of Hg was employed as treatment point). The average IOP recordings are shown for indicated lipids. B. A 10 picomole each of six PC (13:0/13:0; PE (18:0/18:0), Lyso-PS 18:0, PS 18:1, Sphinganine and C17S1P) were combined and applied as a topical dose once daily for up to 7 days on DBA/2J mouse eyes in 5% DMSO (vehicle). […] Transgenic myocillin mice [Tg-MYOC(Y437H)] subjected to a topical dose of indicated lipids as noted above (FIG. 5C). The IOP lowering compared to control was noted on day 4 and 6 as shown.
Intraocular pressure lowering in mouse models. The endogenous lipids lowered IOP in a DBA/2J mouse model of glaucoma (FIG. 5A). DBA/2J is the only known mouse animal where elevation of IOP occur spontaneously. Although this mouse also suffers from pigmentary dispersion, however, elevation of IOP appears not to correlate with […]. The lipids as indicated were applied as a topical dose (10 pmole in 5% DMSO as vehicle). The 5% DMSO only vehicle served as a control (FIG. 5A). […] A 10 picomole each of six PC (13:0/13:0; PE (18:0/18:0), Lyso-PS 18:0, PS 18:1, Sphinganine, and C17S1P) were combined and applied as a topical dose once daily for up to 7 days on DBA/2J mouse eyes in 5% DMSO (vehicle) (in other words, 10 picomoles of each PC was included). […] In addition to the DBA/2J model described here, these endogenous lipids lowered IOP in cochlin and connective tissue growth factor (CTGF) over-expression models. […] Thus the endogenous lipids assessed here lowered IOP in vastly different DBA/2J and MYOC(Y437H) mouse models as well as in cochlin and CTGF overexpression models covering a broad swath of four rodent glaucoma models that encompass induced as well as spontaneous IOP elevation.
Topical application of lipids and measurement of IOP: The lipids were topically applied as 1 μl drops with 10 pmole lipids. Pressure was measured with a tonolab (Colonial
Medical Supplies, N.H.) or with an assembled cannulation device, used in our laboratory. An initial assessment had utilized 10% DMSO as vehicle. However, all data reported here utilized 5% DMSO.

[1] = system: normotensive cynomolgus monkeys; experiment: IOP and slit lamp examination in normotensive cynomolgus monkeys after topical lipid; type: in vivo
Procedure: Lipids were topically administered in 1 μl volume around ˜1 pm in the afternoon. The right eye was treated with vehicle alone, and the left eye was treated with lipid. The cynomolgus monkeys (n=4) were treated with […] lipid (except C17S1P which was 50 nM) for 5 days. Monkeys were subjected to slit lamp examination and IOP measurement prior to and after treatment. The IOP measured 3-6 hours post-treatment on the fifth day of treatment is depicted as solid bars. The hollow bars are control (vehicle only (5% DMSO)).
Experimental design: The IOP-reducing activity of six lipids was tested in the eyes of cynomolgus monkeys (n=4 animals for each lipid). Baseline slit lamp biomicroscopic examination (SLE) and IOP for each group of animals was measured prior to topical application of lipids. The SLE and IOP were then measured at 3-6 hours posttreatment. One eye of each monkey received topical application with the lipid suspended in vehicle (1% dimethylsulfoxide (DMSO)), and the contralateral eye was treated with vehicle only. All topical applications contained 10 picomole of lipid (except C17S1P, which was 50 nM). […] The IOP was measured using a minified Goldmann applanation tonometer.

SMILES: CCN[C@H]1C[C@H](C)S(=O)(=O)c2sc(S(N)(=O)=O)cc21 [Dorzolamide, reference compound]
- lowering of IOP after elevation, short term application (FIG. 5B) (DBA/2J mice): same level of IOP reduction as Timolol

SMILES: CCCCCCCCCCCCCCCCCC(=O)OC[C@@H](O)COP(=O)(O)OC[C@H](N)C(=O)O [PS18:0 Lyso-PS]
- IOP reduction ([1]; topical 10 picomole (C17S1P 50 nM), 5 days, IOP 3-6 hours post-treatment): reduced IOP significantly
- adverse side effects or toxicity ([1]; topical, slit lamp examination): without additional adverse side effects or toxicity
